Patent US20070154445A1, “Compositions, methods and kits for preventing the decomposition of urine” (priority 2006, published 2007)
Like-named read-outs stand apart in the source and are kept apart here.

[1] = 4 grams in total added to 600 milliliters of urine
[2] = 5 grams in total added to 600 milliliters of urine

Protocol: Accordingly, various compositions were tested to determine their effect on the pH when added to 600 milliliters of urine.

Row | Resulting pH [1] | Resulting pH [2] | Compound
1 | 3.4 | 3.3 | O=C(O)C(O)C(O)C(=O)O (centres unmarked) [Pure tartaric acid in granular form, tartaric acid]
2 | 3.8 | 3.7 | O=C(O)CC(O)(CC(=O)O)C(=O)O [Pure citric acid in granular form, citric acid]
3 |  | 4.2 | O=C(O)CCC(=O)O [Pure succinic acid in granular form, succinic acid]
